Data taken from patent US12258327B2, “5-membered heteroaryl-containing aminopyridine compounds as EGFR inhibitors” (YUHAN CORPORATION, priority 2021, dated 2025).
Like-named read-outs stand apart in the source and are kept apart here.

Experiments:
[1] = target: EGFR wildtype (WT) (Homo sapiens, UniProt P00533); assay: Biochemical EGFR kinase assay (Lance Ultra TR-FRET), wildtype
How it was run: (§1)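 Enzyme reactions lasted 1 hour at room temperature with test compounds between 0.003 and 10 μM, followed by 10 mM EDTA quench.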

[2] = target: EGFR del19/C797S (Homo sapiens, UniProt P00533, C797S/DEL746-750); assay: Biochemical EGFR kinase assay (Lance Ultra TR-FRET), double mutant del19/C797S
How it was run: as §1

[3] = target: EGFR del19/T790M/C797S (Homo sapiens, UniProt P00533, C797S/DEL746-750/T790M); assay: Biochemical EGFR kinase assay (Lance Ultra TR-FRET), triple mutant del19/T790M/C797S
How it was run: as §1

[4] = target: EGFR L858R/T790M/C797S (Homo sapiens, UniProt P00533, C797S/L858R/T790M); assay: Biochemical EGFR kinase assay (Lance Ultra TR-FRET), triple mutant L858R/T790M/C797S
How it was run: as §1

[5] = target: EGFR L858R/C797S (Homo sapiens, UniProt P00533, C797S/L858R); assay: Biochemical EGFR kinase assay (Lance Ultra TR-FRET), double mutant L858R/C797S
How it was run: as §1

[6] = Km ATP, read-out: IC50 WT, Km ATP
[7] = Km ATP, read-out: IC50 del19/C797S, Km ATP
[8] = Km ATP, read-out: IC50 del19/T790M/C797S, Km ATP
[9] = Km ATP, read-out: IC50 L858R/T790M/C797S, Km ATP
[10] = Km ATP, read-out: IC50 L858R/C797S, Km ATP
[11] = IC50 WT (nM) 100 μM ATP, 100 μM ATP
[12] = Km ATP, read-out: IC50 WT (nM) Km ATP
[13] = IC50 del19/C797S (nM) 100 μM ATP, 100 μM ATP
[14] = Km ATP, read-out: IC50 del19/C797S (nM) Km ATP
[15] = IC50 del19/T790M/C797S (nM) 100 μM ATP, 100 μM ATP
[16] = Km ATP, read-out: IC50 del19/T790M/C797S (nM) Km ATP
[17] = IC50 L858R/T790M/C797S (nM) 100 μM ATP, 100 μM ATP
[18] = Km ATP, read-out: IC50 L858R/T790M/C797S (nM) Km ATP
[19] = IC50 L858R/C797S (nM) 100 μM ATP, 100 μM ATP
[20] = Km ATP, read-out: IC50 L858R/C797S (nM) Km ATP

EGFR wildtype (WT), sequence (P00533 25-1210): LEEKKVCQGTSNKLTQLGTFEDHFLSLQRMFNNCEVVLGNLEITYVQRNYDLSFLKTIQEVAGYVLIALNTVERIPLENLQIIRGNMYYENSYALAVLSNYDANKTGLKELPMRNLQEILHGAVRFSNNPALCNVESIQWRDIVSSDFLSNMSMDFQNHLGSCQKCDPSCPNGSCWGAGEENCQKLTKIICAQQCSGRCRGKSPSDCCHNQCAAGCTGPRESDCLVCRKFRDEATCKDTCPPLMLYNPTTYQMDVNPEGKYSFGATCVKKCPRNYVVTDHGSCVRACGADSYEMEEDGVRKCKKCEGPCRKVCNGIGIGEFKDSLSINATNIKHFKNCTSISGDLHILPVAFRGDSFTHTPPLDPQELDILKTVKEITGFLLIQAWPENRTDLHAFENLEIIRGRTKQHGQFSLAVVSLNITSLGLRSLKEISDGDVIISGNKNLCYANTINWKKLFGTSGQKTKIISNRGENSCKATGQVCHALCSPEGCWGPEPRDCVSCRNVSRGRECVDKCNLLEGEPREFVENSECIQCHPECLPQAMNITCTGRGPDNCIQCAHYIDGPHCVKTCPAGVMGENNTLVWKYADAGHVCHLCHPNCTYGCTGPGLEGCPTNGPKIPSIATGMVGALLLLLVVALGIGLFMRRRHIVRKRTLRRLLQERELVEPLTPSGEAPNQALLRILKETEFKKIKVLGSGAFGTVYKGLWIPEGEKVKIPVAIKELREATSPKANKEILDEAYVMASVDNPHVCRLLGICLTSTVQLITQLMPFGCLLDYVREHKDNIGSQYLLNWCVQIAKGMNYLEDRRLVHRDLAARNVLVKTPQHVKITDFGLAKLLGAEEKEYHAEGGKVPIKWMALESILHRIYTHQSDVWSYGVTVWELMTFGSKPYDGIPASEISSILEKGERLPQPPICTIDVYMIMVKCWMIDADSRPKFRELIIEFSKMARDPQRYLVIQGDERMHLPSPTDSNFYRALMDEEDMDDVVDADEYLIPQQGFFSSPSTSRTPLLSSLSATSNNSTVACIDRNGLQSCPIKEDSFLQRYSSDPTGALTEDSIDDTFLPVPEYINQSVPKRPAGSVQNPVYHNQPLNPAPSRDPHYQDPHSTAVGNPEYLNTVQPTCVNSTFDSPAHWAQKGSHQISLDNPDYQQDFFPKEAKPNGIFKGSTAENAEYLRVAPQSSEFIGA
EGFR del19/C797S, sequence (P00533 with tags, fused parts or gaps DEL746-750/C797S): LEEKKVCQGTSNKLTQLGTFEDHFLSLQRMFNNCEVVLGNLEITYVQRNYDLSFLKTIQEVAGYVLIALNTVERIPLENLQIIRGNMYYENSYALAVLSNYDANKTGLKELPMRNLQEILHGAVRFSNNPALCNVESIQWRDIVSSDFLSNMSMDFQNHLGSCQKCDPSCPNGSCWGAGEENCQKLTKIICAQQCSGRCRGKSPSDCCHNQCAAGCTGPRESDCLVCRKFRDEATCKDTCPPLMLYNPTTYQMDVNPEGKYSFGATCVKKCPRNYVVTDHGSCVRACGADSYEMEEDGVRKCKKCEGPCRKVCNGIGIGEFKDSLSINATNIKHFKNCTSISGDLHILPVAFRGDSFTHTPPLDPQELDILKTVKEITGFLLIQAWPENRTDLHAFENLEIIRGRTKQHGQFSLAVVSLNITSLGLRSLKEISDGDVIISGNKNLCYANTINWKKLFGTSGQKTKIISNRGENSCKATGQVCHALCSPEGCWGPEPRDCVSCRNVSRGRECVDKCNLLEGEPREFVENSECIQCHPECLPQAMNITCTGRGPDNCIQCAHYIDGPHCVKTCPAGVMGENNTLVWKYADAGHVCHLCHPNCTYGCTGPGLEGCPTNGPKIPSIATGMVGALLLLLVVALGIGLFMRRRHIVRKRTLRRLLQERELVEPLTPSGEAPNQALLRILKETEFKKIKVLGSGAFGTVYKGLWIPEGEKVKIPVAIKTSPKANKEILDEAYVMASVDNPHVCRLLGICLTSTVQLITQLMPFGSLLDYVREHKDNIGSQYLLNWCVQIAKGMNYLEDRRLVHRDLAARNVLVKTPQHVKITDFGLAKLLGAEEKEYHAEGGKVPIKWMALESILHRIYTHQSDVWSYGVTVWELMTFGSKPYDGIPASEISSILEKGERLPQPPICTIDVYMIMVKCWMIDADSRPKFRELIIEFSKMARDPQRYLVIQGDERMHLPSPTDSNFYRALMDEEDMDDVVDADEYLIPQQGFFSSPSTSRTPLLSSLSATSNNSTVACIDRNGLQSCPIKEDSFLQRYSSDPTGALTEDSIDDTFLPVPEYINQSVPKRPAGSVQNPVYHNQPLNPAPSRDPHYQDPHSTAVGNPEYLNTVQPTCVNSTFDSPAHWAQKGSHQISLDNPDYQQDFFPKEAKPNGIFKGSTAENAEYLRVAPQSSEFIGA
EGFR L858R/C797S, sequence (P00533 25-1210 C797S/L858R): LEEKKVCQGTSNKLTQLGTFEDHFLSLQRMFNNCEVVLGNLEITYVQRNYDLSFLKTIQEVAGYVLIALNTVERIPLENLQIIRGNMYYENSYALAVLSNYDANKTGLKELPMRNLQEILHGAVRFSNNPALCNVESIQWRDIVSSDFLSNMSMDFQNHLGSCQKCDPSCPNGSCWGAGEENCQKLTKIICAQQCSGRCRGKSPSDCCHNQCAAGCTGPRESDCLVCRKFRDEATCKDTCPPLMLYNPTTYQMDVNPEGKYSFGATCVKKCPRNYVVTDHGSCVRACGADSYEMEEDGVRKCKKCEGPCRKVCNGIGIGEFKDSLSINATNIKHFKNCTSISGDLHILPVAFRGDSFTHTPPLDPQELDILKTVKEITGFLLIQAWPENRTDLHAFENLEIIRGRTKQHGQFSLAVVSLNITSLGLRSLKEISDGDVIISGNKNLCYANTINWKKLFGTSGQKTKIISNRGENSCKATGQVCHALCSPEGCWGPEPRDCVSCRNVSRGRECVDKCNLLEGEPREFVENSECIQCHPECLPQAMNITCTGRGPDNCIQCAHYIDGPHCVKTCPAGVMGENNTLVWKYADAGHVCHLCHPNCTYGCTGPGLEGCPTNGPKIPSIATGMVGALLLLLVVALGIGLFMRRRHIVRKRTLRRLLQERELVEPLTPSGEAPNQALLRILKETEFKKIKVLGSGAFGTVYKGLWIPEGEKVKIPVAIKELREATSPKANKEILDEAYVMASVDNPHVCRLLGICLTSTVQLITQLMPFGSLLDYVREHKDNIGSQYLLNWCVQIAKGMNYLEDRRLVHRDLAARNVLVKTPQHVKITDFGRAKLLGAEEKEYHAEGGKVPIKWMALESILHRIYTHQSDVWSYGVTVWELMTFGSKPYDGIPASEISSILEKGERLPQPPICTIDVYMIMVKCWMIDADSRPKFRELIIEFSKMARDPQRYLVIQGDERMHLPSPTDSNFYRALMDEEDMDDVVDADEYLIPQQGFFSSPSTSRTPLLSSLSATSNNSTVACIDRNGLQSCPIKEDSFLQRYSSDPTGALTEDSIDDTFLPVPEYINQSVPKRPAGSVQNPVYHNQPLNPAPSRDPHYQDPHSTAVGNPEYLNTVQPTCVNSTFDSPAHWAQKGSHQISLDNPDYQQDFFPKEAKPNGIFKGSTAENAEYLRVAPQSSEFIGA
EGFR del19/T790M/C797S, sequence (P00533 with tags, fused parts or gaps DEL746-750/T790M/C797S): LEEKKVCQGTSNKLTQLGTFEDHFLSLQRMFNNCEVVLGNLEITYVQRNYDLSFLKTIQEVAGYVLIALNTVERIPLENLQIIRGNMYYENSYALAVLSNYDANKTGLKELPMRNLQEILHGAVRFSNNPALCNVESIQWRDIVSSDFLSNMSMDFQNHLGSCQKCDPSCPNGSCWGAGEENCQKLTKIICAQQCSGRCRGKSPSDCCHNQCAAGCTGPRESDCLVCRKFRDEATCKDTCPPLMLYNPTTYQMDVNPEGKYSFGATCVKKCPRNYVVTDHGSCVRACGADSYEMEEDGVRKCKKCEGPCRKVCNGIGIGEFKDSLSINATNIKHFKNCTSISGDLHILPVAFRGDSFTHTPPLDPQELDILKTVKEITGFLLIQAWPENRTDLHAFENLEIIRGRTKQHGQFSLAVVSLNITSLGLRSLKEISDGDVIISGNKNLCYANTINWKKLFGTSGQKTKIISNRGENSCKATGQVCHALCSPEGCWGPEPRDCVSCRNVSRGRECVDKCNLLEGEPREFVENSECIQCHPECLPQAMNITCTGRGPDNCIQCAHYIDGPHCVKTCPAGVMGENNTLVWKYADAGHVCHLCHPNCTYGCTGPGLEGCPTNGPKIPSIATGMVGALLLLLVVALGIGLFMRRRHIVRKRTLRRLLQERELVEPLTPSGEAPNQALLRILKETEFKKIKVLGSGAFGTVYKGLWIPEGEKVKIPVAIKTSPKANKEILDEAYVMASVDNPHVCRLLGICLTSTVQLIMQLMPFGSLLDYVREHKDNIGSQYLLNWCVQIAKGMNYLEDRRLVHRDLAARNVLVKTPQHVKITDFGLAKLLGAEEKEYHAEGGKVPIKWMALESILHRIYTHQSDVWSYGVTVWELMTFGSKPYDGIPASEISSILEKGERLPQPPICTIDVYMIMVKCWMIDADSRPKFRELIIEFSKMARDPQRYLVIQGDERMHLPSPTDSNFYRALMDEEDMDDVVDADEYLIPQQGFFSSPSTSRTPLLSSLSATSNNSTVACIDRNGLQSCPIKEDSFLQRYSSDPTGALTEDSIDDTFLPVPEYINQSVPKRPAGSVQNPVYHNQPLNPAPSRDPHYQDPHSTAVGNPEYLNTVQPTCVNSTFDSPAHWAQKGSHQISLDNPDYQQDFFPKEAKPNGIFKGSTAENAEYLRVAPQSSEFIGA

| SMILES | IC50 [1, 6] [nM] | IC50 [2, 7] [nM] | IC50 [3, 8] [nM] | IC50 [4, 9] [nM] | IC50 [5, 10] [nM] | IC50 [1, 11] [nM] | IC50 [1, 12] [nM] | IC50 [2, 13] [nM] | IC50 [2, 14] [nM] | IC50 [3, 15] [nM] | IC50 [3, 16] [nM] | IC50 [4, 17] [nM] | IC50 [4, 18] [nM] | IC50 [5, 19] [nM] | IC50 [5, 20] [nM] | other results |
| --- | --- | --- | --- | --- | --- | --- | --- | --- | --- | --- | --- | --- | --- | --- | --- | --- |
| CC1(O)CCC(Nc2cc(Nc3ccnc(N4CC(CO)C(F)(F)C4)n3)ncc2-c2ccn(C(F)F)n2)CC1 (centres unmarked) [Example 346, (1s,4s)-4-((2-((2-(3,3-Difluoro-4-(hydroxymethyl)pyrrolidin-1-yl)pyrimidin-4-yl)amino)-5-(1-(difluoromethyl)-1H-pyrazol-3-yl)pyridin-4-yl)amino)-1-methylcyclohexan-1-ol] | 335 | – | – | – | – | – | – | – | – | – | – | – | – | – | – | IC50 ([1]; IC50 WT, 100 μM ATP): > 10000 nM; IC50 ([2]; IC50 del19/C797S, 100 μM ATP): 124 nM; IC50 ([3]; IC50 del19/T790M/C797S, 100 μM ATP): 6.3 nM; IC50 ([4]; IC50 L858R/T790M/C797S, 100 μM ATP): 3.7 nM; IC50 ([5]; IC50 L858R/C797S, 100 μM ATP): 409 nM |
| CN[C@H]1CC[C@@H](Oc2cc(Nc3ccnc(-c4cnn(S(=O)(=O)C5CC5)c4)n3)ncc2-c2cnn(C(F)F)c2)CC1 [Example 69, 2-(1-(Cyclopropylsulfonyl)-1H-pyrazol-4-yl)-N-(5-(1-(difluoromethyl)-1H-pyrazol-4-yl)-4-(((1s,4s)-4-(methylamino)cyclohexyl)oxy)pyridin-2-yl)pyrimidin-4-amine] | – | – | – | – | – | > 10000 | 114 | 18.7 | 11.2 | 0.5 | 0.3 | 1.9 | 0.2 | 257 | 14.7 | – |
| C[C@]1(O)CC[C@@H](Nc2cc(Nc3nc(-c4cnn(S(=O)(=O)C5CC5)c4)ncc3F)ncc2-c2ccn(CC(F)F)n2)CC1 [Example 345, (1s,4s)-4-((2-((2-(1-(Cyclopropylsulfonyl)-1H-pyrazol-4-yl)-5-fluoropyrimidin-4-yl)amino)-5-(1-(2,2-difluoroethyl)-1H-pyrazol-3-yl)pyridin-4-yl)amino)-1-methylcyclohexan-1-ol] | 22.2 | 4.6 | 0.4 | 0.9 | 0.3 | – | – | – | – | – | – | – | – | – | – | – |
| CN(C)C[C@]1(O)CC[C@@H](Nc2cc(Nc3ccnc(-c4cnn(S(=O)(=O)C5CC5)c4)n3)ncc2-c2ccn(C)n2)CC1 [Example 230, (1s,4s)-4-((2-((2-(1-(Cyclopropylsulfonyl)-1H-pyrazol-4-yl)pyrimidin-4-yl)amino)-5-(1-methyl-1H-pyrazol-3-yl)pyridin-4-yl)amino)-1-((dimethylamino)methyl)cyclohexan-1-ol] | – | – | – | – | – | 4670 | 9.4 | 6 | 4.8 | 0.5 | 0.2 | 0.5 | 0.2 | 33.8 | 3.3 | – |
| O=S(=O)(C1CC1)n1cc(-c2nccc(Nc3cc(N[C@H]4CC[C@@H](CO)CC4)c(-c4ccn(CC(F)F)n4)cn3)n2)cn1 [Example 244, ((1s,4s)-4-((2-((2-(1-(Cyclopropylsulfonyl)-1H-pyrazol-4-yl)pyrimidin-4-yl)amino)-5-(1-(2,2-difluoroethyl)-1H-pyrazol-3-yl)pyridin-4-yl)amino)cyclohexyl)methanol] | – | – | – | – | – | 975 | 2.3 | 0.5 | 0.6 | 0.2 | 0.3 | 0.4 | 0.1 | 1.9 | 0.5 | – |
| O=S(=O)(C1CC1)n1cc(-c2nccc(Nc3cc(N[C@H]4CC[C@@H](O)CC4)c(-c4ccn(C(F)F)n4)cn3)n2)cn1 [Example 80, (1s,4s)-4-((2-((2-(1-(Cyclopropylsulfonyl)-1H-pyrazol-4-yl)pyrimidin-4-yl)amino)-5-(1-(difluoromethyl)-1H-pyrazol-3-yl)pyridin-4-yl)amino)cyclohexan-1-ol] | – | – | – | – | – | 214 | – | 1.2 | – | 0.7 | – | 0.8 | – | 1.4 | – | – |

The next lines start with results.

| IC50 [1, 6] [nM] | IC50 [2, 7] [nM] | IC50 [3, 8] [nM] | IC50 [4, 9] [nM] | IC50 [5, 10] [nM] | IC50 [1, 11] [nM] | IC50 [1, 12] [nM] | IC50 [2, 13] [nM] | IC50 [2, 14] [nM] | IC50 [3, 15] [nM] | IC50 [3, 16] [nM] | IC50 [4, 17] [nM] | IC50 [4, 18] [nM] | IC50 [5, 19] [nM] | IC50 [5, 20] [nM] | SMILES | other results |
| --- | --- | --- | --- | --- | --- | --- | --- | --- | --- | --- | --- | --- | --- | --- | --- | --- |
| 9 | 6.1 | 0.8 | 0.5 | 3.7 | – | – | – | – | – | – | – | – | – | – | Cc1nn(CC(F)(F)F)cc1-c1nccc(Nc2cc(N[C@H]3CC[C@@H](CCO)CC3)c(-c3ccn(CC(F)F)n3)cn2)n1 [Example 337, 2-((1s,4s)-4-((5-(1-(2,2-Difluoroethyl)-1H-pyrazol-3-yl)-2-((2-(3-methyl-1-(2,2,2-trifluoroethyl)-1H-pyrazol-4-yl)pyrimidin-4-yl)amino)pyridin-4-yl)amino)cyclohexyl)ethan-1-ol] | – |
| 72.7 | 8.1 | 3.1 | 1 | 10.1 | – | – | – | – | – | – | – | – | – | – | Cc1nn(CC(F)(F)F)cc1-c1cc(Nc2ncc(-c3cc(C(F)(F)F)n(C)n3)c(N[C@H]3CC[C@@](C)(O)CC3)n2)ccn1 [Example 369, (1s,4s)-1-Methyl-4-((2-((2-(3-methyl-1-(2,2,2-trifluoroethyl)-1H-pyrazol-4-yl)pyridin-4-yl)amino)-5-(1-methyl-5-(trifluoromethyl)-1H-pyrazol-3-yl)pyrimidin-4-yl)amino)cyclohexan-1-ol] | – |
| 147 | 17.4 | 3.4 | 1.2 | 8.3 | – | – | – | – | – | – | – | – | – | – | Cc1nn(CC(F)(F)F)cc1-c1cc(Nc2ncc(-c3ccn(CC(F)(F)F)n3)c(N[C@H]3CC[C@@](C)(O)CC3)n2)ccn1 [Example 370, (1s,4s)-1-Methyl-4-((2-((2-(3-methyl-1-(2,2,2-trifluoroethyl)-1H-pyrazol-4-yl)pyridin-4-yl)amino)-5-(1-(2,2,2-trifluoroethyl)-1H-pyrazol-3-yl)pyrimidin-4-yl)amino)cyclohexan-1-ol] | – |
| – | – | – | – | – | > 10000 | 14.2 | 11 | 6.3 | 1.9 | 0.6 | 1.1 | 0.5 | 37.4 | 5.4 | Cc1nn(S(=O)(=O)N(C)C)cc1-c1nccc(Nc2cc(N[C@H]3CC[C@@](C)(O)CC3)c(-c3ccn(C(F)F)n3)cn2)n1 [Example 315, 4-(4-((5-(1-(Difluoromethyl)-1H-pyrazol-3-yl)-4-(((1s,4s)-4-hydroxy-4-methylcyclohexyl)amino)pyridin-2-yl)amino)pyrimidin-2-yl)-N,N,3-trimethyl-1H-pyrazole-1-sulfonamide] | – |
| – | – | – | – | – | – | 33.5 | – | 3.9 | – | 0.4 | – | 0.2 | – | 1.8 | Cc1nn(CC(F)(F)F)cc1-c1nccc(Nc2cc(N[C@H]3CC[C@@](C)(O)CC3)c(-c3ccn(C(F)F)n3)cn2)n1 [Example 320, (1s,4s)-4-((5-(1-(Difluoromethyl)-1H-pyrazol-3-yl)-2-((2-(3-methyl-1-(2,2,2-trifluoroethyl)-1H-pyrazol-4-yl)pyrimidin-4-yl)amino)pyridin-4-yl)amino)-1-methylcyclohexan-1-ol] | – |
| – | – | – | – | – | – | 91.9 | – | 41.8 | – | 25.3 | – | 14.5 | – | 8 | Cn1nc(-c2cnc(Nc3ccnc(-c4cnn(S(=O)(=O)C5CC5)c4)n3)cc2N[C@H]2CC[C@@H](F)CC2)cc1C(F)(F)F [Example 175, N^2-(2-(1-(Cyclopropylsulfonyl)-1H-pyrazol-4-yl)pyrimidin-4-yl)-N^4-((1s,4s)-4-fluorocyclohexyl)-5-(1-methyl-5-(trifluoromethyl)-1H-pyrazol-3-yl)pyridine-2,4-diamine] | – |
| – | – | – | – | – | > 10000 | – | 151 | – | 172 | – | 63.9 | – | 819 | – | CN(CC(F)F)C[C@H]1CC[C@@H](Nc2cc(Nc3ccnc(-c4cnn(S(=O)(=O)C5CC5)c4)n3)ncc2-c2cc(C(F)(F)F)n(C)n2)CC1 [Example 259, N^2-(2-(1-(Cyclopropylsulfonyl)-1H-pyrazol-4-yl)pyrimidin-4-yl)-N^4-((1s,4s)-4-(((2,2-difluoroethyl)(methyl)amino)methyl)cyclohexyl)-5-(1-methyl-5-(trifluoromethyl)-1H-pyrazol-3-yl)pyridine-2,4-diamine] | – |
